# Test results taken from ChEMBL document CHEMBL1128056, “Methanodibenzosuberylpiperazines as potent multidrug resistance reversal agents” (Bioorg Med Chem Lett, 1995).
# Target: not listed separately
# Assay: Binding affinity to glycoprotein p was tested
# Settings: not given
row,IC50,Compound
1,40 nM,OC(COc1cccc2ncccc12)CN1CCN(C2c3ccccc3C3C(c4ccccc42)C3(F)F)CC1 (stereo in doubt; form 5) [listing 1 of 2 here]

# System: not listed separately
# Assay: Half-life at pH 2.0 and 37 degree C
# Type: ADME
# Settings: buffer
row,half-life,Compound
1,> 72 h,OC(COc1cccc2ncccc12)CN1CCN(C2c3ccccc3C3C(c4ccccc42)C3(Cl)Cl)CC1 (stereo in doubt; form 1)
2,> 72 h,OC(COc1cccc2ncccc12)CN1CCN(C2c3ccccc3C3C(c4ccccc42)C3(F)F)CC1 (stereo in doubt; form 1) [listing 1 of 2 here]

# System: CHRC5 cell line
# Assay: Compound was tested for its cytotoxic effect on CHRC5 Chinese hamster cells at a dose of 1 uM; not cytotoxic
# Type: functional, cell-based
# Settings: Cricetulus griseus
row,Compound,Activity
1,OC(COc1cccc2ncccc12)CN1CCN(C2c3ccccc3C3C(c4ccccc42)C3(F)F)CC1 (stereo in doubt; form 1) [listing 2 of 2 here],Non-toxic
2,OC(COc1cccc2ncccc12)CN1CCN(C2c3ccccc3C3C(c4ccccc42)C3(F)F)CC1 (stereo in doubt; form 2) [listing 1 of 2 here],Non-toxic
3,OC(COc1cccc2ncccc12)CN1CCN(C2c3ccccc3C3C(c4ccccc42)C3(F)F)CC1 (stereo in doubt; form 5) [listing 2 of 2 here],Non-toxic

# System: CHRC5 cell line
# Assay: Tested for in vitro proliferation and viability of multidrug resistant CHRC5 Chinese hamster cells in the presence and absence of doxorubicin in a modified MTT assay
# Type: functional, cell-based, Cricetulus griseus
# Settings: Cricetulus griseus, CHRC5
row,Compound,EC50
1,OC(COc1cccc2ncccc12)CN1CCN(C2c3ccccc3CCc3ccccc32)CC1 (stereo not drawn),65 nM
2,COc1ccc(CCN(C)CCCC(C#N)(c2ccc(OC)c(OC)c2)C(C)C)cc1OC (stereo not drawn),1200 nM
3,OC(COc1cccc2ncccc12)CN1CCN(C2c3ccccc3C3CC3c3ccccc32)CC1 (stereo not drawn),40 nM
4,OC(COc1cccc2ncccc12)CN1CCN(C2c3ccccc3C3C(c4ccccc42)C3(Cl)Cl)CC1 (stereo in doubt; form 1),100 nM

# Same assay, conditions: chrc5
row,Compound,EC50
1,OC(COc1cccc2ncccc12)CN1CCN(C2c3ccccc3C3C(c4ccccc42)C3(Cl)Cl)CC1 (racemic),70 nM
2,"OC(COc1cccc2ncccc12)CN1CCN(C2c3ccccc3C3C(c4ccccc42)C3(F)F)CC1 (single isomer, unassigned)",190 nM
3,OC(COc1cccc2ncccc12)CN1CCN(C2c3ccccc3C3C(c4ccccc42)C3(F)F)CC1 (stereo in doubt; form 1) [listing 1 of 2 here],50 nM
4,OC(COc1cccc2ncccc12)CN1CCN(C2c3ccccc3C3C(c4ccccc42)C3(Cl)Cl)CC1 (stereo in doubt; form 2),55 nM
5,OC(COc1cccc2ncccc12)CN1CCN(C2c3ccccc3C3C(c4ccccc42)C3(F)F)CC1 (stereo in doubt; form 2) [listing 2 of 2 here],60 nM
6,OC(COc1cccc2ncccc12)CN1CCN(C2c3ccccc3C3C(c4ccccc42)C3(F)F)CC1 (stereo in doubt; form 3),180 nM
7,OC(COc1cccc2ncccc12)CN1CCN(C2c3ccccc3C3C(c4ccccc42)C3(F)F)CC1 (stereo in doubt; form 4),200 nM
8,OC(COc1cccc2ncccc12)CN1CCN(C2c3ccccc3C3C(c4ccccc42)C3(F)F)CC1 (stereo in doubt; form 5) [listing 1 of 2 here],20.7 nM
